Experiments:
HDAC1 [1] = target: T1, HDAC1 (Homo sapiens, UniProt Q13547); experiment: HDAC1 protein level in breast cancer cell lines, Western blot; assay type: cell-based; details: MDA-MB-468 cells, 14 h
Experimental: FIG. 3A: Western blot showing HDAC protein levels in MDA-MB-468 cells treated with the indicated concentration of XZ9002 for 14 h. FIG. 3B: pretreatment with 1 μM MG132, or 10 μM VHL032 for 1 h blocked the degradation of HDAC3 by XZ9002 {125 nM}. […] NC: XZ9002-NC. FIG. 3C: time-dependent experiment in MDA-MB-468 cells after treatment with 125 nM XZ9002 at the indicated time points. FIG. 3D: MDA-MB-468 cells were incubated with 125 nM of XZ9002 for 14 h followed by drug washout, and incubation of the cells in drug-free medium for an additional time. Data are presented as representative figures of two independent experiments.
The culture of the triple-negative breast cancer cell line MDA-MB-468 and the ER+ breast cancer cell line T47D was exposed to vehicle control (DMSO) and the indicated compounds at specified concentrations for 14 h. Cells were lysed for WB with antibodies against the indicated proteins. Antibodies against acetylated histones at specific sites (H3K27 and H4K5) and acetyl-lysine were used to assess levels of histone acetylation. Levels of HDAC3 were normalized against that of tubulin and % of HDAC3 protein levels in cells treated with the indicated compounds relative to that in DMSO control is shown.
Cell lines were obtained from ATCC and subsequently authenticated. […]

[2] = system: NCI-60 panel of 60 cancer lines; experiment: NCI-60 cell line panel proliferation; assay type: cell-based; details: five doses; leukemia, NSCLC, colon, CNS, melanoma, ovarian, renal, prostate and breast cancer lines
Experimental: The indicated cancer cell lines were treated with XZ9002 at five different doses. The percentage growth relative to the cell numbers before compound exposure was plotted against the XZ9002 concentrations in the log scale.

HDAC2 = HDAC2 (Homo sapiens, UniProt Q92769); experiment: In vitro HDAC activity assay (HDAC-Glo I/II), HDAC2; assay type: biochemical; parameters: purchased BPS Bioscience 50002; details: average of three independent assays ± standard deviation
HDAC2, sequence (Q92769 whole entry, the tested form may be a part): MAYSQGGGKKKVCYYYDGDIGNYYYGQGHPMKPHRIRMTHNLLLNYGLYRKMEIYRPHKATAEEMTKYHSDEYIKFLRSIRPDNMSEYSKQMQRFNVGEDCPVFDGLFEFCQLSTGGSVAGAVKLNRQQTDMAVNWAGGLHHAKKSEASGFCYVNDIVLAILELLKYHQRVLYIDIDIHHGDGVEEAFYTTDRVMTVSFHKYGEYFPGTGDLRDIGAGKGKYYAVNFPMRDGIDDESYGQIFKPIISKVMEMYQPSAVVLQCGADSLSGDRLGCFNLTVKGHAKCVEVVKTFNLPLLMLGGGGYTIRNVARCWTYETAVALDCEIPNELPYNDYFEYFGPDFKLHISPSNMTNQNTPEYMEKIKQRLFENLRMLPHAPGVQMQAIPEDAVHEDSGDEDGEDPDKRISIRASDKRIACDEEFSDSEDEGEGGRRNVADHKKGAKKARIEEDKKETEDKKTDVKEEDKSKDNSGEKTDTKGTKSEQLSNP
Experimental: (§1) Purified HDAC1, HDAC2, and HDAC3 (in complex with the deacetylase activation domain of the human NCOR2 (amino acids 395-498)) were obtained from Enzo Life Sciences (HDAC1, catalog # BML-SE456-0050) and BPS Bioscience (HDAC2, catalog #50002 and HDAC3, catalog #50003), respectively. The enzyme activities were tested using the HDAC-Glo I/II reagents (Promega) according to a protocol provided by the manufacturer.

HDAC1 [3] = target: T1, HDAC1; experiment: In vitro HDAC activity assay (HDAC-Glo I/II), HDAC1; assay type: biochemical; parameters: purchased Enzo Life Sciences BML-SE456-0050; details: average of three independent assays ± standard deviation
Experimental: as §1

HDAC3 = HDAC3 (Homo sapiens, UniProt O15379); experiment: HDAC3 degradation in MDA-MB-231 xenograft tumors; assay type: in vivo; parameters: from tissue; host or cells: MDA-MB-231 xenograft tumours from NSG mice; details: female NSG mice, MDA-MB-231 xenografts, 50 mg/kg i.p., tumors 24 h after dosing
HDAC3, sequence (O15379 whole entry): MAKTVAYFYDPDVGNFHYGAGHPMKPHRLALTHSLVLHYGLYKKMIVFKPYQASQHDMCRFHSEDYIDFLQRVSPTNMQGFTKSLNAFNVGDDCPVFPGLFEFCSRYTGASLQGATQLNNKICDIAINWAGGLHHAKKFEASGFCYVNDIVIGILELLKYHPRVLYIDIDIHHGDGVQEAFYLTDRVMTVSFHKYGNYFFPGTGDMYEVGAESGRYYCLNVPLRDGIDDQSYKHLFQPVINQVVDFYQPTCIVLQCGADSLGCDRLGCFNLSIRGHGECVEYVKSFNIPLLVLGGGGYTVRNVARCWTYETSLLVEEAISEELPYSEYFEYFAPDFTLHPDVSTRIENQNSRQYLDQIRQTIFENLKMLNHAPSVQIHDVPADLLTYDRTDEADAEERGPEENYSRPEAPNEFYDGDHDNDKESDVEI
HDAC3, sequence (Q9Y618 395-498 partner limits assumed): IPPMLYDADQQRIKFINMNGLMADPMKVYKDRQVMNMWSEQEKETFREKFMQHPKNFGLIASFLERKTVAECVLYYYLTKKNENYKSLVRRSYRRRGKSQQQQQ
Experimental: NSG mice bearing MDA-MB-231 xenografts were dosed with vehicle or XZ9002 (50 mg/kg) by i.p. Tumors were dissected from euthanized mice 24 h after dosing. The tumor lysates were analyzed by WB. The quantification is shown in lower panels. ***: p<0.0001 (t-test vs vehicle).

T1 sequence (Q13547 whole entry): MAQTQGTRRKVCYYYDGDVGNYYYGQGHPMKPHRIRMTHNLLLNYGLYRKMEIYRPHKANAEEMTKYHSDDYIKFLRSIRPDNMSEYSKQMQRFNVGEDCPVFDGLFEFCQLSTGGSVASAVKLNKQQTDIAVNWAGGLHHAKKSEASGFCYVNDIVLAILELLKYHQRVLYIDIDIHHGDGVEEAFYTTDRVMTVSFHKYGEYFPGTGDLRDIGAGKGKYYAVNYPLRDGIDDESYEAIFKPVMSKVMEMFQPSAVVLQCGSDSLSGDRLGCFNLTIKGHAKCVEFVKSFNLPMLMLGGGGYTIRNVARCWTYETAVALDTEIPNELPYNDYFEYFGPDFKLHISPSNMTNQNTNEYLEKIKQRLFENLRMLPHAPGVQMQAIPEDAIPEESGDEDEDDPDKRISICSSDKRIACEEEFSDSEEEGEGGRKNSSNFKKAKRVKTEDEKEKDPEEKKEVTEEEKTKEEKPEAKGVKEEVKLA

- change in HDAC1 protein level (HDAC1 [1]): no significant changes
- IC50 (HDAC2): 1550 ± 70 nM
- IC50 (HDAC1 [3]): 650 ± 70 nM
- HDAC3 degradation in xenograft tumor (HDAC3): effectively degrade
Structure (SMILES): CCCNNC(=O)c1ccc(-c2ccc(NC(=O)CCCCCCC(=O)N[C@H](C(=O)N3C[C@H](O)C[C@H]3C(=O)N[C@@H](C)c3ccc(-c4scnc4C)cc3)C(C)(C)C)cc2)cc1 [XZ9002, N^1—((S)-1-((2S,4R)-4-hydroxy-2-(((S)-1-(4-(4-methylthiazol-5-yl)phenyl)ethyl)carbamoyl)pyrrolidin-1-yl)-3,3-dimethyl-1-oxobutan-2-yl)-N^5-(4′-(2-propylhydrazine-1-carbonyl)-[1,1′-biphenyl]-4-yl)octanediamide]
- inhibition of proliferation [2]: effectively inhibits the proliferation
